Assay results published in patent publication US20180282351A1, “Amorphous Ixazomib Citrate” (Mylan Laboratories Ltd, priority 2015, published 2018).

Assay: Stability of Form M2 on storage, polymorph checked by PXRD
Format: physicochemical
Description: In one aspect, the present invention provides crystalline ixazomib citrate form M1. The ixazomib citrate forms of the present invention, including form M1, prepared by methods disclosed herein, may be characterized by PXRD. Therefore samples of each ixazomib citrate form (including amorphous, M1, M2, M3, and M4) were analyzed by PXRD on a BRUKER D-8 Discover powder diffractometer equipped with a goniometer of θ/2θ configuration and Lynx Eye detector. The Cu-anode X-ray tube was operated at 40 kV and 30 mA. The experiments were conducted over the 2θ range of 2.0°-50.0°, 0.030° step size, and 0.4 seconds step time.

Long-term physical stability (change in PXRD pattern) (1, 3 and 6 months stored at 5±3° C., at 25° C./60% and at 40° C./75% relative humidity (RH)): does not show any change in PXRD pattern
Polymorph by PXRD (at 5 ± 3° C., 1 month): Form M2
Polymorph by PXRD (at 5 ± 3° C., 3 months): Form M2
Polymorph by PXRD (at 5 ± 3° C., 6 months): Form M2
Polymorph by PXRD (at 5 ± 3° C., Initial): Form M2
Polymorph by PXRD (at 25° C./60% RH, 1 month): Form M2
Polymorph by PXRD (at 25° C./60% RH, 3 months): Form M2
Polymorph by PXRD (at 25° C./60% RH, 6 months): Form M2
Polymorph by PXRD (at 25° C./60% RH, Initial): Form M2
Polymorph by PXRD (at 40° C./75% RH, 1 month): Form M2
Polymorph by PXRD (at 40° C./75% RH, 3 months): Form M2
Polymorph by PXRD (at 40° C./75% RH, 6 months): Form M2
Polymorph by PXRD (at 40° C./75% RH, Initial): Form M2
SMILES: CC(C)C[C@H](NC(=O)CNC(=O)c1cc(Cl)ccc1Cl)B1OC(=O)C(CC(=O)O)(CC(=O)O)O1 [Form M2, 2,2′-{2-[(1R)-1-({[(2,5-dichlorobenzoyl)amino]acetyl}amino)-3-methylbutyl]-5-oxo-1,3,2-dioxaborolane-4,4-diyl}diacetic acid]
